This is an account of results in patent US4247702A, “Method of stabilizing 4-methyl-5-(2'chloroethyl)-thiazol” (Pharmaceutical Licences Company Ltd., priority 1978, dated 1981).

A short description of the series: Chloride analysis of decomposition deposit of Clomethiazol-Base kept 7 days at 70° C. The class given is physicochemical. Particulars: deposit after 7 days at 70° C., washed with benzene. As to the method: Freshly distilled Clomethiazol-Base was kept for 7 days at 70° C., and the precipitated brown deposit (decomposition products) was washed with benzene and analyzed.

As to `Cc1ncsc1CCCl` [CMT-Base, 4-Methyl-5-(2'-Chlorethyl)-thiazol], the “total chloride greater than the sum of free chloride and chloride of occluded CMT-Base and CMT-HCl (chloride surplus)” value is recorded as 17%.
